According to PubChem BioAssay AID330 (DTP/NCI, 2004):
Where “and” joins values, the source holds several entries; their conditions need not be identical. Equal entries are not always repeated. Toxic doses and inconclusive results are not listed. Rule for the calls: active = survival T/C of 150% or more; inactive = T/C below 125% in these data.

Test system: P388 leukemia ip, CD2F1 mice, survival T/C
Assay: NCI In Vivo Anticancer Drug Screen. Data for tumor model P388 Leukemia (intraperitoneal) in CD2F1 (CDF1) mice
Settings: endpoint: median survival time, higher = longer survival
Procedure, shortened: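 Mice carrying the transplanted tumor received test compound or vehicle. Survival was recorded in each group, and the value is the treated-group measurement divided by that of the vehicle-treated control group.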

[1] = dose: 50.0 mg/kg/injection, schedule: Q01DX005 (ip), vehicle: Klucel (hydroxypropylcellulose) (HPC)
[2] = dose: 100.0 mg/kg/injection, schedule: Q01DX005 (ip), vehicle: Klucel (hydroxypropylcellulose) (HPC)
[3] = dose: 200.0 mg/kg/injection, schedule: Q01DX005 (ip), vehicle: Klucel (hydroxypropylcellulose) (HPC)
[4] = dose: 60.0 mg/kg/injection, schedule: Q01DX005 (ip), vehicle: saline with Tween-80
[5] = dose: 120.0 mg/kg/injection, schedule: Q01DX005 (ip), vehicle: saline with Tween-80
[6] = dose: 240.0 mg/kg/injection, schedule: Q01DX005 (ip), vehicle: saline with Tween-80
[7] = dose: 6.25 mg/kg/injection, schedule: Q01DX009 (ip), vehicle: saline with Tween-80
[8] = dose: 12.5 mg/kg/injection, schedule: Q01DX009 (ip), vehicle: saline with Tween-80
[9] = dose: 50.0 mg/kg/injection, schedule: Q01DX009 (ip), vehicle: saline with Tween-80
[10] = dose: 100.0 mg/kg/injection, schedule: Q01DX009 (ip), vehicle: saline with Tween-80
[11] = dose: 200.0 mg/kg/injection, schedule: Q01DX009 (ip), vehicle: saline with Tween-80
[12] = dose: 400.0 mg/kg/injection, schedule: Q01DX009 (ip), vehicle: saline with Tween-80
[13] = dose: 25.0 mg/kg/injection, schedule: Q01DX009 (ip), vehicle: saline with Tween-80
[14] = dose: 100.0 mg/kg/injection, schedule: Q04DX003 (ip), vehicle: saline with Tween-80

Measured: T/C

CN(NC(=O)C(=O)NCc1ccco1)C(=O)Nc1ccccc1
inactive: [1] 100 % of control | [2] 99 % of control | [3] 99 % of control

N#CCCN1C(=O)C2(CCC#N)CCCCC2(O)N=C1c1ccccc1 (stereo not drawn)
inactive: dose: 60.0 mg/kg/injection, schedule: Q01DX005 (ip), vehicle: Klucel (hydroxypropylcellulose) (HPC) 92 % of control | dose: 120.0 mg/kg/injection, schedule: Q01DX005 (ip), vehicle: Klucel (hydroxypropylcellulose) (HPC) 94 % of control | dose: 240.0 mg/kg/injection, schedule: Q01DX005 (ip), vehicle: Klucel (hydroxypropylcellulose) (HPC) 92 % of control

CC(=O)Oc1ccc([N+](=O)[O-])cc1[N+](=O)[O-]
inactive: dose: 6.25 mg/kg/injection, schedule: Q04DX002 (ip), vehicle: Klucel (hydroxypropylcellulose) (HPC) 97 % of control | dose: 12.5 mg/kg/injection, schedule: Q04DX002 (ip), vehicle: Klucel (hydroxypropylcellulose) (HPC) 103 % of control | dose: 25.0 mg/kg/injection, schedule: Q04DX002 (ip), vehicle: Klucel (hydroxypropylcellulose) (HPC) 100 % of control

CCc1ccccc1NC(=O)C(=O)CC(=O)CS(=O)(=O)c1ccc(C)cc1
inactive: [4] 103 % of control | [5] 100 % of control | [6] 103 % of control

Oc1ccc(C(c2ccc(O)cc2)C(Cl)(Cl)Cl)cc1
inactive: dose: 50.0 mg/kg/injection, schedule: Q04DX003 (ip), vehicle: saline + Tween-80 + alcohol 104 % of control | dose: 100.0 mg/kg/injection, schedule: Q04DX003 (ip), vehicle: saline + Tween-80 + alcohol 101 % of control | dose: 200.0 mg/kg/injection, schedule: Q04DX003 (ip), vehicle: saline + Tween-80 + alcohol 103 % of control | dose: 400.0 mg/kg/injection, schedule: Q04DX003 (ip), vehicle: saline + Tween-80 + alcohol 111 % of control

O=C(O)CSc1nnc(Cc2cccc3ccccc23)n1-c1ccccc1
inactive: [1] 100 % of control | [2] 102 % of control | [3] 100 % of control

CCOC(=O)CCC(Br)(Br)Br
inactive: dose: 50.0 mg/kg/injection, schedule: Q01DX009 (ip), vehicle: Klucel (hydroxypropylcellulose) (HPC) 100 % of control | dose: 100.0 mg/kg/injection, schedule: Q01DX009 (ip), vehicle: Klucel (hydroxypropylcellulose) (HPC) 100 % of control | dose: 200.0 mg/kg/injection, schedule: Q01DX009 (ip), vehicle: Klucel (hydroxypropylcellulose) (HPC) 97 % of control

CSC(=S)N/N=C(\c1ccccc1)c1ccccn1
inactive: [7] 96 % of control | [8] 89 % of control and 97 % of control | [9] 92 % of control

COC1/C=C/O[C@@]2(C)Oc3c(C)c(O)c4c(O)c(cc(O)c4c3C2=O)NC(=O)/C(C)=C\C=C\[C@H](C)C(O)[C@@H](C)[C@@H](O)[C@@H](C)[C@H](OC(C)=O)[C@@H]1C (stereo partly drawn)
inactive: dose: 6.25 mg/kg/injection, schedule: Q03HX024 (ip), vehicle: saline 100 % of control | dose: 12.5 mg/kg/injection, schedule: Q03HX024 (ip), vehicle: saline 110 % of control | dose: 25.0 mg/kg/injection, schedule: Q03HX024 (ip), vehicle: saline 100 % of control | dose: 50.0 mg/kg/injection, schedule: Q03HX024 (ip), vehicle: saline 100 % of control | [10] 90 % of control | dose: 100.0 mg/kg/injection, schedule: Q03HX024 (ip), vehicle: saline 100 % of control | dose: 100.0 mg/kg/injection, schedule: Q04DX003 (ip), vehicle: saline sonified 100 % of control | [11] 109 % of control | dose: 200.0 mg/kg/injection, schedule: Q04DX003 (ip), vehicle: saline sonified 100 % of control | [12] 118 % of control | dose: 400.0 mg/kg/injection, schedule: Q04DX003 (ip), vehicle: saline sonified 109 % of control

CCCCCCCCCCC/C=C/[N+](=O)[O-]
inactive: dose: 5.0 mg/kg/injection, schedule: Q01DX005 (ip), vehicle: Klucel (hydroxypropylcellulose) (HPC) 101 % of control | dose: 10.0 mg/kg/injection, schedule: Q01DX005 (ip), vehicle: Klucel (hydroxypropylcellulose) (HPC) 99 % of control | dose: 20.0 mg/kg/injection, schedule: Q01DX005 (ip), vehicle: Klucel (hydroxypropylcellulose) (HPC) 104 % of control | dose: 40.0 mg/kg/injection, schedule: Q01DX005 (ip), vehicle: Klucel (hydroxypropylcellulose) (HPC) 99 % of control

C[N+](C)(C)c1ccc(/C=C/[N+](=O)[O-])cc1
inactive: [8] 95 % of control | [13] 102 % of control

N#Cc1c2c(c(N3CCCCC3)n3c1nc1ccccc13)CCC2
inactive: dose: 15.0 mg/kg/injection, schedule: Q01DX005 (ip), vehicle: saline with Tween-80 98 % of control | dose: 30.0 mg/kg/injection, schedule: Q01DX005 (ip), vehicle: saline with Tween-80 102 % of control | [4] 91 % of control and 95 % of control

COc1cc2c(cc1OC)C1C(C)c3ccc(OC)c(OC)c3CN1CC2 (stereo not drawn)
inactive: dose: 12.5 mg/kg/injection, schedule: Q01DX009 (ip), vehicle: saline 88 % of control | dose: 25.0 mg/kg/injection, schedule: Q01DX009 (ip), vehicle: saline 104 % of control | dose: 50.0 mg/kg/injection, schedule: Q01DX009 (ip), vehicle: saline 107 % of control | dose: 50.0 mg/kg/injection, schedule: Q04DX003 (ip), vehicle: distilled water + Tween-80 93 % of control | dose: 100.0 mg/kg/injection, schedule: Q04DX003 (ip), vehicle: distilled water + Tween-80 87 % of control | dose: 200.0 mg/kg/injection, schedule: Q04DX003 (ip), vehicle: distilled water + Tween-80 87 % of control | dose: 400.0 mg/kg/injection, schedule: Q01DX009 (ip), vehicle: saline 94 % of control | dose: 400.0 mg/kg/injection, schedule: Q04DX003 (ip), vehicle: distilled water + Tween-80 91 % of control

O=C1CSC(c2ccc(F)cc2)N1CCN1C(=O)CSC1c1ccc(F)cc1 (stereo not drawn)
inactive: [4] 106 % of control | [5] 100 % of control | [6] 95 % of control

O=C1NC2(CCN(Cc3ccccc3)CC2)Nc2ccccc21
inactive: [1] 99 % of control | [2] 99 % of control | [3] 97 % of control

Cc1cccc(CO)c1-c1c(C)cccc1CO
inactive: [1] 101 % of control | [2] 108 % of control | [3] 100 % of control

CC1(C)/C(=C/c2ccccc2)C(=O)c2ccccc21
inactive: [10] 90 % of control | [11] 100 % of control | [12] 100 % of control

CSC(=S)Nc1nc2ccc(C)cc2s1
inactive: dose: 100.0 mg/kg/injection, schedule: Q04DX003 (ip), vehicle: Klucel (hydroxypropylcellulose) (HPC) 95 % of control | dose: 200.0 mg/kg/injection, schedule: Q04DX003 (ip), vehicle: Klucel (hydroxypropylcellulose) (HPC) 88 % of control | dose: 400.0 mg/kg/injection, schedule: Q04DX003 (ip), vehicle: Klucel (hydroxypropylcellulose) (HPC) 92 % of control

Cc1ccc(S(=O)(=O)N(Cc2ccccc2)S(=O)(=O)c2ccc(C)cc2)cc1
inactive: [13] 110 % of control | [9] 118 % of control | [10] 101 % of control

O=C(OCc1ccccc1)N1Cc2cc3ccccc3nc2C1
inactive: [14] 103 % of control | dose: 200.0 mg/kg/injection, schedule: Q04DX003 (ip), vehicle: saline with Tween-80 103 % of control | dose: 400.0 mg/kg/injection, schedule: Q04DX003 (ip), vehicle: saline with Tween-80 101 % of control

Cc1c(N=O)c(-c2ccccc2)n(O)[n+]1[O-]
inactive: [4] 102 % of control | [5] 101 % of control | [6] 102 % of control

CC1OCC(Br)([N+](=O)[O-])CO1 (stereo not drawn)
inactive: dose: 3.12 mg/kg/injection, schedule: Q01DX009 (ip), vehicle: saline with Tween-80 104 % of control and 110 % of control | [7] 108 % of control and 112 % of control | [8] 100 % of control and 103 % of control and 113 % of control

CCc1ccccc1NC1=C(Cl)C(=O)c2ccccc2C1=O
inactive: [4] 104 % of control | [5] 107 % of control

CCOC(=O)Nc1cc2ncc(-c3ccccc3)nc2c(N)n1
inactive: dose: 50.0 mg/kg/injection, schedule: Q01DX001 (ip), vehicle: saline with Tween-80 97 % of control | dose: 100.0 mg/kg/injection, schedule: Q01DX001 (ip), vehicle: saline with Tween-80 93 % of control | dose: 200.0 mg/kg/injection, schedule: Q01DX001 (ip), vehicle: saline with Tween-80 90 % of control

Cc1ccc(S(=O)(=O)/C=C/CCl)cc1
inactive: dose: 50.0 mg/kg/injection, schedule: Q01DX005 (ip), vehicle: saline with Tween-80 103 % of control | dose: 100.0 mg/kg/injection, schedule: Q01DX005 (ip), vehicle: saline with Tween-80 113 % of control

O=C1CC2(C(=O)N1CN1CCN(c3ccc(F)cc3)CC1)c1ccccc1-c1ccccc12 (tested in a mixture with another compound)
inactive: [14] 90 % of control
